Experimental data from US20180353501A1 (Arvinas, Inc., priority 2017, published 2018).

Key:
endogenous p38δ = biological target: T1, endogenous p38δ (Homo sapiens, UniProt O15264+P40337); assay: Ternary complex pull-down from MDA-MB-231 whole cell lysate with GST-VBC bait; format: binding
T1 construct: GST-VBC was immobilized on glutathione sepharose beads and incubated with MDA-MB-231 whole cell lysate (WCL); endogenous in cells; host or cells: MDA-MB-231 whole cell lysate (p38δ); GST-VBC bait made in E. coli BL21(DE3)
T1 sequence (O15264 whole entry): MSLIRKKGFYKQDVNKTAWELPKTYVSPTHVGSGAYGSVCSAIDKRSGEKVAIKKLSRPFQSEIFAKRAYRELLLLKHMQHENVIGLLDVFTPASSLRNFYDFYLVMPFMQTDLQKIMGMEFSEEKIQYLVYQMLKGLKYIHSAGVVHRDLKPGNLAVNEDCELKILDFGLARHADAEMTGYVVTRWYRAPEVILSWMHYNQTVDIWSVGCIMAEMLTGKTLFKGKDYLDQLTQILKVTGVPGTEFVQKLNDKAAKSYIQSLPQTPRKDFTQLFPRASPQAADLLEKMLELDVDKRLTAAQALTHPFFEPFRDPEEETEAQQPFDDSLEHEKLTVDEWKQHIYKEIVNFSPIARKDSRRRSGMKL
T1 sequence (P40337 whole entry): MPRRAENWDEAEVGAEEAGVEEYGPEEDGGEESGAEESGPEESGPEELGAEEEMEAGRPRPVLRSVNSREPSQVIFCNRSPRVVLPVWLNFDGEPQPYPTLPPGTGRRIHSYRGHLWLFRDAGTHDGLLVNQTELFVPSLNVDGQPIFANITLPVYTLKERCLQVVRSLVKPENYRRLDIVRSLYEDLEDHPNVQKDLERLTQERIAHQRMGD
T1 sequence (Q15370 whole entry partner): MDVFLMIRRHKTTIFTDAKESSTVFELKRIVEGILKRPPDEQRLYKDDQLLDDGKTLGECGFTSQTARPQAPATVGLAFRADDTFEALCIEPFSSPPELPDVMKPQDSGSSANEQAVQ
T1 sequence (Q15369 whole entry partner): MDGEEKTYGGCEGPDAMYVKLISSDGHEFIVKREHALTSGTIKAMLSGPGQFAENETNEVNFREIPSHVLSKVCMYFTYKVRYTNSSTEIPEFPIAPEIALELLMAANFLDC
Text: FIGS. 15A, 15B, and 15C. Differential p38δ:PROTAC:VHL ternary complex affinities result in distinct cellular ubiquitination outcomes. (A) Both exemplary compound 50 and 46 pull-down p38δ in vitro, however compound 46 maintains ternary complex at lower concentrations. As in FIG. 14A, GST-tagged VBC was used as a bait to trap recombinant p38δ in the presence of vehicle (DMSO) or the indicated concentrations of compound 50 or 46. The rightmost lane represents a 1:25 dilution of initial input protein used in each pull-down. […] GST-VBC was immobilized on glutathione sepharose beads and incubated with MDA-MB-231 whole cell lysate (WCL) in the presence of vehicle (DMSO) or the indicated concentrations of compound 50 or 46. Beads were washed and “trapped” proteins (i.e. those that engage in a ternary complex) were eluted with SDS sample buffer and separated by SDS-PAGE. Samples were assessed by western blot and CUL2 and α-tubulin serve as positive and negative GST-VBC immunoprecipitation controls, respectively. […] FLAGimmunoprecipitated lysates were separated by SDS-PAGE and assessed via western blots detecting HA (Ub). […]
To further assess these findings, a more biologically-relevant context for measuring ternary complex formation was used. […] Thus, whether PROTAC-induced PPIs could be monitored in a complex cellular environment using CETSA was examined. […]

MAK = biological target: T2, MAK (Homo sapiens, UniProt P20794); assay: KINOMEscan in vitro kinase binding; details: screened at 1000 nM; lower number = stronger binding
T2 construct: purchased DiscoverRx Corporation (KINOMEscan platform, service)
T2 sequence (P20794 whole entry): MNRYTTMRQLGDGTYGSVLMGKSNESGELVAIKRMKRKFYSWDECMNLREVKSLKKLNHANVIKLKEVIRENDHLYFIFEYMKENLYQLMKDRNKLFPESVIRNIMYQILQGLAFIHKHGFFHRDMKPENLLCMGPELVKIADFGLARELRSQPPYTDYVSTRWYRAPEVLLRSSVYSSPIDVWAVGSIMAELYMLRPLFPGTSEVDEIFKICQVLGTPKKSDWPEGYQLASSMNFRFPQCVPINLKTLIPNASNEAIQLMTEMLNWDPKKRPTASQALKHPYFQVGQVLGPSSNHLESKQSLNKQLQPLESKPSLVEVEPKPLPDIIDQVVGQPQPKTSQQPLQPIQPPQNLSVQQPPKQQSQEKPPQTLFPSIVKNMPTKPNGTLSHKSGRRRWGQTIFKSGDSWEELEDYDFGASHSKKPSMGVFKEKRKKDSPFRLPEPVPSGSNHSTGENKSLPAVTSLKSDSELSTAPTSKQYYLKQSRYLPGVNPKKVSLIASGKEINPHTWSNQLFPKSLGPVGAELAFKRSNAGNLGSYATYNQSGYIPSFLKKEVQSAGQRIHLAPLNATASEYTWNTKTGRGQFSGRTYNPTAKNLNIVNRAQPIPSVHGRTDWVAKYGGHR
Description: In Vitro Kinase Binding Affinity Determination for Example 1 and Example 2.
PROTAC in vitro binding affinities (Kd) to c-Met was determined using the KINOMEscan™ platform (DiscoverRx Corporation). The compounds were solubilized in DMSO and sent to DiscoverRx Corporation as 10 μM stock solutions.
Example 1 and Example 2 were screened at a 1000 nM concentration, and the results of the binding interactions are reported in “% Ctrl”, where a lower number indicates stronger binding. % Ctrl=[(test compound signal−positive control signal)/(negative control signal−positive control signal)]×100, wherein the negative control was DMSO.

cMET = biological target: T3, cMET (Homo sapiens, UniProt P08581); assay: Western blot examination of protein degradation, MDA-MB-231 cells; format: cell-based; details: 24 hours
T3 construct: endogenous in cells; host or cells: MDA-MB-231
T3 sequence (P08581 25-1390): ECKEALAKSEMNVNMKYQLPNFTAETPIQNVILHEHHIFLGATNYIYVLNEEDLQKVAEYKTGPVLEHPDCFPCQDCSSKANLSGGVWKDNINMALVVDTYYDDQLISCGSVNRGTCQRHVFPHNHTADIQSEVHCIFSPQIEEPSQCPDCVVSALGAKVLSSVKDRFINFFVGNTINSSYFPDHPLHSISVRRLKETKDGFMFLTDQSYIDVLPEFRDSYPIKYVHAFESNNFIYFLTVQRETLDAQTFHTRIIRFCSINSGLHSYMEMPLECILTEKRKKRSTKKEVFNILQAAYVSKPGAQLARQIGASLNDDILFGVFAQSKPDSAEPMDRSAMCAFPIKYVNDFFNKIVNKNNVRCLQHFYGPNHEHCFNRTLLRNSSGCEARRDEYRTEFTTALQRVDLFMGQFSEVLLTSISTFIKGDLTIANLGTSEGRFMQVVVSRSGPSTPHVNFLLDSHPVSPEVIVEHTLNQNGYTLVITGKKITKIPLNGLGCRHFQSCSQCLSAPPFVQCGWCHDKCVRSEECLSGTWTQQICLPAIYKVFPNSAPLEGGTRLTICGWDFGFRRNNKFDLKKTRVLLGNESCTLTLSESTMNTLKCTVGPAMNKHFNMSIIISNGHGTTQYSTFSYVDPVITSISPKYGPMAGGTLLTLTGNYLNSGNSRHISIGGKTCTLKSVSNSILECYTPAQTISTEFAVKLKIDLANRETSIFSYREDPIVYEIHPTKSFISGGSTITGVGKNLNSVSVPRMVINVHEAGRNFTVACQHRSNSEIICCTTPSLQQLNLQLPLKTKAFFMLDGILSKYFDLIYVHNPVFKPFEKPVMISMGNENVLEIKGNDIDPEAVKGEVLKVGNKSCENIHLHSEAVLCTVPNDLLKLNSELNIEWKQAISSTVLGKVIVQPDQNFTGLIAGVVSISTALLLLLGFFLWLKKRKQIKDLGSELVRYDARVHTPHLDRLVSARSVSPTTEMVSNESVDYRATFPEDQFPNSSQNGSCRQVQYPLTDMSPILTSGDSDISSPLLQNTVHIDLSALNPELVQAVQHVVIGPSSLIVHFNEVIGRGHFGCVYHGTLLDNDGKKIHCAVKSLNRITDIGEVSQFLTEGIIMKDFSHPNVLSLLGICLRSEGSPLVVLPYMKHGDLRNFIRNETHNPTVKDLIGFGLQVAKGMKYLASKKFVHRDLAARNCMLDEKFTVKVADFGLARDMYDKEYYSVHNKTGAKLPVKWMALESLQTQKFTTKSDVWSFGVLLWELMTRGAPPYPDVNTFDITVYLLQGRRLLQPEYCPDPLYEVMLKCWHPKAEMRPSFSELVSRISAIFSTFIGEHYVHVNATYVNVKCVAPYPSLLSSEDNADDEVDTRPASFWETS
Description: FIG. 4. Illustrates the degradation of Met by exemplary VHL (Examples 1 and 6) and cereblon (Examples 2 and 8) PROTACS.
Western Blot Examination of Protein Degradation.
MDA-MB-231 cells (1-1.5×10^6) were treated for 24 hours with the indicated compounds solubilized in DMSO. The cells were collected at 300 g for 3 minutes. The cells were then lysed in lysis buffer (25 mM Tris, 1% Triton, 0.25% deoxycholic acid) with Roche protease inhibitor complete cocktail and phosphatase inhibitors (10 mM sodium fluoride, 10 mM sodium pyrophosphate, 1 mM sodium orthovanadate and 20 mM β-glycerophosphate). The total protein concentrations were determined by Pierce BCA Protein Assay and 30-50 μg of protein was loaded onto 10% Tris-Glycine gels. After standard gel electrophoresis, the separated proteins were transferred to nitrocellulose by wet transfer. The immunoblots were then processed by standard procedures and incubated with the respective antibodies. Band intensities were quantified by Bio-Rad's Image Lab software.

SMILES	enrichment of endogenous p38δ from whole cell lysate on GST-VBC bait (endogenous p38δ)	% Ctrl (MAK) [% Ctrl]	degradation of c-Met (western blot) (cMET)
COc1cc2c(Oc3ccc(NC(=O)C4(C(=O)Nc5ccc(F)cc5)CC4)cc3F)ccnc2cc1OCCOCCOCCOc1cc(-c2scnc2C)ccc1CNC(=O)[C@@H]1C[C@@H](O)CN1C(=O)[C@H](C(C)C)N1Cc2ccccc2C1=O [compound 46]	strongly enrich for endogenous p38δ in a dose-dependent manner	–	–
COc1cc2c(Oc3ccc(NC(=O)C4(C(=O)Nc5ccc(F)cc5)CC4)cc3F)ccnc2cc1OCCCOCCCOCCC(=O)N[C@H](C(=O)N1C[C@H](O)C[C@H]1C(=O)NCc1ccc(-c2scnc2C)cc1)C(C)(C)C [Example 1]	–	92	significant protein degradation of c-Met
COc1cc2c(Oc3ccc(NC(=O)C4(C(=O)Nc5ccc(F)cc5)CC4)cc3F)ccnc2cc1OCCCCOCCCCOCC(=O)N[C@H](C(=O)N1C[C@H](O)C[C@H]1C(=O)NCc1ccc(-c2scnc2C)cc1)C(C)(C)C [compound 50, N-(3-fluoro-4-((7-(4-(4-(2-(((S)-1-((2S,4R)-4-hydroxy-2-((4-(4-methylthiazol-5-yl)benzyl)carbamoyl)pyrrolidin-1-yl)-3,3-dimethyl-1-oxobutan-2-yl)amino)-2-oxoethoxy)butoxy)buto-xy)-6-methoxyquinolin-4-yl)oxy)phenyl)-N-(4-fluorophenyl)cyclopropane-1,1-dicarboxa-mide]	greatly reduced	–	–
